Test systems include NCI-H522; HOP-92; PC-3; LOX IMVI; HL-60; HCC 2998; SW-620; A549; EKVX; SNB-19; SK-OV-3; RXF 393; 786-0; MDA-MB-435; HCT-116; Malme-3M; RPMI-8226; OVCAR-8; OVCAR-5; SNB-75.
Common to all, as to experiment: growth of human tumour cells (NCI), 48 h

Consider 8 compounds from ChEMBL document CHEMBL1201862, “PubChem BioAssay data set” (2004).

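How tested: cells in 96-well plates exposed to compound for 48 hours at five concentrations. At the GI50, growth is halved.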 Active and inactive are the calls of the source. Cut-off read from the data, not from the text of the source: active = GI50 up to about 1.1 µM and inactive = higher.

Regarding `C/C(=C1\C(=O)C(c2ccccc2)N(c2ccccc2)C1=O)c1ccc(Cl)cc1` (centres undefined), the GI50 in the assay with NCI-H522 was 18.2 µM (inactive); in the assay on HOP-92, 3.17 µM (inactive); with PC-3 it was 14.3 µM (inactive); in the assay on LOX IMVI it was 14.9 µM (inactive); in the assay on HL-60, 28.6 µM (inactive); in the assay with HCC 2998 it was 36.6 µM (inactive). Besides, the GI50 is 22.8 µM (inactive) in the assay with SW-620; 18.2 µM (inactive) with A549; 30.8 µM (inactive) in the assay on EKVX; 17.4 µM (inactive) with SNB-19; 16.7 µM (inactive) with SK-OV-3; 24 µM (inactive) with RXF 393. For the same compound, the GI50 was 18.3 µM (inactive) in the assay on 786-0; 17.4 µM (inactive) in the assay on MDA-MB-435; 16.4 µM (inactive) in the assay on HCT-116; 19.7 µM (inactive) in the assay on Malme-3M; 15.4 µM (inactive) in the assay with RPMI-8226.
`COC(=O)Nc1nc2ccc(S(=O)(=O)SC)cc2[nH]1`: the GI50 was 4.33 µM (inactive) in the assay on NCI-H522; 6.35 µM (inactive) in the assay with HOP-92; 4.42 µM (inactive) in the assay with PC-3; 4.78 µM (inactive) with LOX IMVI; 2.38 µM (inactive) in the assay with HL-60; 5.13 µM (inactive) with OVCAR-8. The GI50 with HCC 2998 is 10.4 µM (inactive); in the assay on SW-620 it was 3.73 µM (inactive); with A549 it was 8.11 µM (inactive); in the assay on EKVX, 8.69 µM (inactive); in the assay with SNB-19, 7.55 µM (inactive); in the assay on SK-OV-3 it was 8.39 µM (inactive). Also, the GI50 was 5.46 µM (inactive) in the assay with RXF 393; 5.09 µM (inactive) with 786-0; 2.69 µM (inactive) with MDA-MB-435; 4.68 µM (inactive) in the assay with HCT-116; 9.89 µM (inactive) in the assay on Malme-3M; 3.84 µM (inactive) in the assay on RPMI-8226. The GI50 with OVCAR-5 was 11.6 µM (inactive).
Turning to `COC(=O)[C@@H](Nc1ccccc1)[C@@]1(C(=O)OC)SC12c1ccccc1-c1ccccc12`, the GI50 in the assay with NCI-H522 was 22 µM (inactive); in the assay on HOP-92, 9.29 µM (inactive); in the assay with PC-3, 35 µM (inactive); in the assay on LOX IMVI, 32.7 µM (inactive); with HL-60, > 100 µM (inactive); in the assay on OVCAR-8, 63 µM (inactive). The GI50 is > 100 µM (inactive) in the assay on HCC 2998; 38.3 µM (inactive) in the assay with SW-620; 44.8 µM (inactive) in the assay with A549; 61.8 µM (inactive) in the assay with EKVX; > 100 µM (inactive) in the assay with SNB-19; 71.3 µM (inactive) in the assay on RXF 393. Besides, the GI50 in the assay with 786-0 was 29.4 µM (inactive); in the assay on MDA-MB-435, 54.8 µM (inactive); in the assay with HCT-116, 12.8 µM (inactive); in the assay with Malme-3M, 49.7 µM (inactive); in the assay on RPMI-8226, 25.8 µM (inactive); with OVCAR-5, > 100 µM (inactive).
`C(=N\c1ccc(-c2cc(-c3ccccc3)nc3ccc4ccccc4c23)cc1)/c1ccccc1`: the GI50 in the assay on PC-3 is 13.2 µM (inactive); in the assay with LOX IMVI, 19.9 µM (inactive); with HL-60 it was 9.48 µM (inactive); in the assay on OVCAR-8, 26 µM (inactive); in the assay with HCC 2998 it was 11.4 µM (inactive); with SW-620, 26.2 µM (inactive). The GI50 in the assay on A549 is 13.6 µM (inactive); with EKVX, 18.1 µM (inactive); in the assay on SNB-19, 18.5 µM (inactive); with SK-OV-3, 30.3 µM (inactive); in the assay on RXF 393, 9.68 µM (inactive); in the assay on 786-0, 19.5 µM (inactive). Besides, the GI50 is 21.2 µM (inactive) in the assay with MDA-MB-435; 16.6 µM (inactive) in the assay with HCT-116; 30.5 µM (inactive) in the assay on Malme-3M; 1.18 µM (inactive) with SNB-75; 15.6 µM (inactive) in the assay with RPMI-8226; 56.1 µM (inactive) in the assay with OVCAR-5.
With `COc1ccc(CCn2cnc3ccccc32)cc1`, the GI50 in the assay on NCI-H522, in the assay with HOP-92, in the assay with PC-3, with HL-60, in the assay with OVCAR-8 and in the assay on HCC 2998 was > 100 µM (inactive) each time. The GI50 in the assay with SW-620, in the assay on A549, in the assay with EKVX, with SNB-19, with SK-OV-3 and in the assay on RXF 393 was > 100 µM (inactive) each time. Besides, the GI50 in the assay on 786-0, with MDA-MB-435, in the assay on HCT-116, in the assay on Malme-3M, in the assay on SNB-75 and with RPMI-8226 was > 100 µM (inactive) throughout. The GI50 in the assay on OVCAR-5 is > 100 µM (inactive).
Turning to `CC(=O)Oc1ccccc1/C=C/C(=O)/C=C/c1ccccc1OC(C)=O`, the GI50 with NCI-H522 is 1.96 µM (inactive); in the assay with HOP-92, 4.11 µM (inactive); in the assay with PC-3, 1.65 µM (inactive); in the assay on LOX IMVI it was 0.64 µM (active); in the assay on HL-60 it was 0.748 µM (active); with OVCAR-8, 1.94 µM (inactive). Also, the GI50 in the assay with HCC 2998 is 1.88 µM (inactive); in the assay on SW-620, 0.447 µM (active); in the assay on A549, 2.26 µM (inactive); in the assay with EKVX it was 1.79 µM (inactive); in the assay on SNB-19, 2.39 µM (inactive); in the assay with SK-OV-3, 4.15 µM (inactive). The GI50 in the assay with RXF 393 is 0.126 µM (active); in the assay on 786-0 it was 1.79 µM (inactive); with MDA-MB-435 it was 2.15 µM (inactive); in the assay with HCT-116, 0.239 µM (active); in the assay with Malme-3M, 2.81 µM (inactive); in the assay on RPMI-8226 it was 0.308 µM (active). For the same compound, the GI50 in the assay on OVCAR-5 is 2.21 µM (inactive).
Consider `NC(Cc1cccc([N+](=O)[O-])c1)C(=O)O` (centres undefined), for which the GI50 was > 100 µM (inactive) with NCI-H522; 61.5 µM (inactive) with HOP-92; > 100 µM (inactive) in the assay with PC-3; > 100 µM (inactive) with LOX IMVI; > 100 µM (inactive) with HL-60; > 100 µM (inactive) in the assay with OVCAR-8. Further, the GI50 in the assay on HCC 2998, in the assay with SW-620, in the assay on A549, with EKVX, in the assay with SNB-19 and in the assay on SK-OV-3 was > 100 µM (inactive) each time. For the same compound, the GI50 with RXF 393, in the assay on 786-0, in the assay on MDA-MB-435, with HCT-116, with Malme-3M and with RPMI-8226 was > 100 µM (inactive) each time. Moreover, in the assay on OVCAR-5, the GI50 was > 100 µM (inactive).
As to `C#CCCCC(=C)C[C@H](OCc1ccccc1)[C@H]1OC(=O)[C@@H]1C`, the GI50 with HOP-92 is 37.6 µM (inactive); in the assay on PC-3, 48.2 µM (inactive); with HL-60 it was 66.1 µM (inactive); in the assay on OVCAR-8, 31.8 µM (inactive); with HCC 2998 it was > 100 µM (inactive); in the assay on SW-620, > 100 µM (inactive). For the same compound, the GI50 in the assay with A549 was 56.4 µM (inactive); in the assay with EKVX, > 100 µM (inactive); in the assay with SNB-19, > 100 µM (inactive); with SK-OV-3 it was > 100 µM (inactive); with RXF 393 it was > 100 µM (inactive); in the assay with MDA-MB-435 it was 48.6 µM (inactive). Moreover, the GI50 was > 100 µM (inactive) in the assay with SNB-75, 11.5 µM (inactive) in the assay on RPMI-8226 and > 100 µM (inactive) with OVCAR-5.
